The text below walks through data of publication PMC11451537, “P2X7 receptors exhibit at least three modes of allosteric antagonism” (Science Advances, 2024).

Like-named read-outs stand apart in the source and are kept apart here.

The target in one assay is T1, rP2X7 (Rattus norvegicus, UniProt Q64663).
T1 sequence (Q64663 1-595): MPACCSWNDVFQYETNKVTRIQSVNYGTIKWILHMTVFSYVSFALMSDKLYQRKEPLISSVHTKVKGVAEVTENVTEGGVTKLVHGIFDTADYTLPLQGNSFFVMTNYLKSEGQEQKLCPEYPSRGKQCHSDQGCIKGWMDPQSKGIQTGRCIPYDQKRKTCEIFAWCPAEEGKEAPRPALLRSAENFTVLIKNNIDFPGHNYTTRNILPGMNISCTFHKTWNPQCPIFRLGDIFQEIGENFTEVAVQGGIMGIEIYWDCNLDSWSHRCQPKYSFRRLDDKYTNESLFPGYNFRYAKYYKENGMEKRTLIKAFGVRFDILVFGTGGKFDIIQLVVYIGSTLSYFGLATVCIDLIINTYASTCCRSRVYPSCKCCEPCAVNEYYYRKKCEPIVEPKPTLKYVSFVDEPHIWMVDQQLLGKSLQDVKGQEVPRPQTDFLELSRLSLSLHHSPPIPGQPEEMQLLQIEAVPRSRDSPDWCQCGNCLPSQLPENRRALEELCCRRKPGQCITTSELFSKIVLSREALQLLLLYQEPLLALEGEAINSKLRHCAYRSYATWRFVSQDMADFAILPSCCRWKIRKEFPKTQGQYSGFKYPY
Kind of assay: Bio-layer interferometry (BLI), biotinylated rP2X7 on streptavidin biosensors, 2:1 Langmuir fit. In kind it is binding. The note with it: for kon: pH 7.4, 2:1 Langmuir model, 600-s association. On the procedure:
Using a HiTrap desalting column (Cytiva), 1 ml of diluted purified rP2X7 was desalted into PBS buffer (pH 7.4). Protein-containing fractions were combined and concentrated before adjusting the pH to 8.0 with NaHCO3. NHS-PEG12-Biotin (Thermo Fisher Scientific) was added and incubated at 23°C for 60 min while shaking. PBS was used to dilute the biotinylated sample before four cycles of dilution and concentration to ensure the removal of free NHS-PEG12-Biotin via a 100-kDa concentrator (Millipore Sigma). After the final cycle, the absorbance at 280 nm of the concentrated sample was taken to quantify the amount of biotinylated rP2X7.
A ForteBio Octet RED384 instrument with ForteBio Data Acquisition software 11.0 was used to carry out BLI experiments. The assays were performed at 30°C using 384-well tilted-bottom plates (Sartorius) while orbital shaking at 1000 RPM. Running buffer consisting of filtered (0.22 μm) PBS (pH 7.4) with 0.5 mM DDM (Anatrace). Streptavidin (SA) biosensor tips (Sartorius) were pre-equilibrated in running buffer for 20 min and loaded with 50 μg ml^−1 of biotinylated rP2X7 ligand or biocytin (Sigma-Aldrich) control for 1800s. Blocking of the loaded SA sensors using 100 μg ml^−1 of biocytin was then initiated for 150 s before washing with a running buffer for 60 s. A baseline of loaded sensors was taken in the running buffer for 120 s before dipping them into wells containing ligand dilutions (0.37 to 10 μM for methyl blue) for 600 s, and then returning the sensors to the running buffer for a 600-s disassociation step. Rate constants for association and disassociation were determined using ForteBio Data Analysis HT 11.0 evaluation software. The raw data were double reference subtracted for maximal signal between the large ligand and small analyte. Biocytin controls were the first subtraction across analyte concentrations, and the zero-analyte concentration was the second. The association rate constant (ka) and the dissociation rate constant (kd) were calculated for each interaction pair using an average of three independent assays containing at least four different concentrations that were globally fit to a 2:1 Langmuir binding model. Equilibrium dissociation constants (KD) were calculated as the ratio of kd to ka. The KD1, KD2, ka1, ka2, kd1, and kd2 values are reported as the average ± the SD of three replicate datasets for each analyte, with each dataset using at least four independent traces. The analyzed data were exported and plotted in GraphPad Prism 9.0.

For the next assay, the target named is T2, hP2X7 (Homo sapiens, UniProt Q99572).
T2 sequence (Q99572 1-595): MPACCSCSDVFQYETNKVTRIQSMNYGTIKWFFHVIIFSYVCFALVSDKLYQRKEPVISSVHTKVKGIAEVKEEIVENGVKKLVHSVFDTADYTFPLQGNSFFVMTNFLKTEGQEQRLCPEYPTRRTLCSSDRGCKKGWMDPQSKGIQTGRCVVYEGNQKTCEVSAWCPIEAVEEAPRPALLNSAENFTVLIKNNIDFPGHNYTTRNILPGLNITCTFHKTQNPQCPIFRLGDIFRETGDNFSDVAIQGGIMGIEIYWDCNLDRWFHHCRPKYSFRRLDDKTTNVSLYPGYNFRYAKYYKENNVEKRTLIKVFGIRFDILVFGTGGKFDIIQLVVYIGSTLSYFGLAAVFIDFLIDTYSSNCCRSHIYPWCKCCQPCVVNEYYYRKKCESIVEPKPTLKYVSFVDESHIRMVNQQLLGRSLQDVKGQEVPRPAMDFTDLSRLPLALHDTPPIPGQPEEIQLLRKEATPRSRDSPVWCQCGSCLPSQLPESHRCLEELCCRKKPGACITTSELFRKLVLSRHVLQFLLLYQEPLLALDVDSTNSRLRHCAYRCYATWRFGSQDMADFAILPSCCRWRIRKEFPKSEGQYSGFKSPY
Kind of assay: TEVC recovery of current after complete inhibition (IC100), hP2X7. The conditions noted are these: 120 s buffer wash, 100 μM ATP. The arrangement: hP2X7-WT constructs used for electrophysiology are similarly unmodified full-length, wild-type receptor constructs; expressed in transfected cells; host or cells: Xenopus laevis oocytes injected with mRNA made from pcDNA3.1x. In kind it is cell-based. The text has this: Experiments were run in triplicate.

The mark [1] stands for this setting: 2:1 Langmuir model, 600-s dissociation.

Regarding `O=S(=O)(O)c1ccc(N=C2C=CC(=C(c3ccc(Nc4ccc(S(=O)(=O)O)cc4)cc3)c3ccc(Nc4ccc(S(=O)(=O)O)cc4)cc3)C=C2)cc1` [methyl blue], the “share of signal of the high-affinity component (KD1)” value at rP2X7 (2:1 Langmuir model) turned out to be 67 ± 8%. Also, on rP2X7 (2:1 Langmuir model), the “share of signal of the low-affinity component (KD2)” value is 33 ± 8%. Further, the Kd was found to be 260 ± 130 nM at rP2X7 (2:1 Langmuir model, 30°C, PBS pH 7.4 with 0.5 mM DDM, ratio of kd to ka, read-out: KD1 (high-affinity binding component)) and 1500 ± 200 nM at rP2X7 (read-out: KD2 (low-affinity binding component), 2:1 Langmuir model, 30°C, PBS pH 7.4 with 0.5 mM DDM, ratio of kd to ka). Moreover, on rP2X7 (setting [1]), the “rate constant for dissociation kd1” value was 1.1 ± 0.5 × 10^−4 s^−1. The “rate constant for dissociation kd2” value on rP2X7 (setting [1]) is reported as 1.3 ± 0.1 × 10^−2 s^−1. Besides, the kon on rP2X7 (read-out: rate constant for association ka1) is 450 ± 2000 M⁻¹ s⁻¹; on rP2X7 (read-out: rate constant for association ka2) it was 9300 ± 2.3e+06 M⁻¹ s⁻¹. The “Recovery of activation (% of baseline current)” value on hP2X7 (hP2X7, 40-s IC100 application) turned out to be 34 ± 3%; at hP2X7 (hP2X7, 120-s IC100 application), 17 ± 6%; on hP2X7 (hP2X7, 240-s IC100 application) it was 2 ± 1%.
